The source of these data is patent publication US9428505B2, “Hydantoin derivative” (Chugai Seiyaku Kabushiki Kaisha, priority 2012, dated 2016).

Data set [1] is described as follows: Metabolic stability using human liver microsomes. The following applies: pH 7.4; human liver microsomes 0.5 mg/mL, compound 1 μM, NADPH 1 mM, 37° C.; read-out: Clearance. It counts as in vitro ADME. The protocol:
Examination of Metabolic Stability Using Human Liver Microsomes
In 0.1 M phosphate buffer (pH7.4), human liver microsomes were incubated with a compound or a comparative example in the coexistence of NADPH at 37° C. for a specified amount of time. The concentration of the parent compound at each reaction time was measured using LC/MS/MS, and inherent clearance (μL/min/mg protein) was calculated from the slope of the reaction time versus residual rate.
(§1) Compound concentration: 1 μM
Reaction time: 0, 5, 15, and 30 minutes
On the technique in general: Liver microsomes are vesicles of endoplasmic reticulum, rich in cytochrome P450 enzymes.

In a further data set the test system is TPTX rat model. The experiment in a line: Calcemic action in the TPTX rat model. It counts as in vivo. The following applies: TPTX rats, oral 30 mg/kg. The procedure: Calcemic Action in the TPTX Rat Model
Four-week old female Crl:CD(SD) rats were obtained from Charles River Japan (Atsugi Breeding Center), and were acclimated to standard laboratory conditions of 20-26° C. and 35-75% humidity for one week. The rats were given tap water and were fed ad libitum with standard rodent chow (CE-2) (CLEA Japan, Inc.) containing 1.1% calcium, 1.0% phosphoric acid, and 250 IU/100 g of vitamin D3.
TPTX was performed on five-week old rats. Some of the individuals were subjected to sham operation (Sham). Individuals whose serum Ca concentration was less than 8 mg/dL on four days after the operation were selected for use as TPTX rats. On five days after the operation, the rats were assigned to eight TPTX groups and one Sham group (n=5, each group) based on their body weight and serum Ca concentration measured on four days after the operation. The solvent alone was orally administered to the Sham group and the TPTX-Vehicle group at a volume of 10 mL/kg. Each test article was orally administered individually to each TPTX test article group by dissolving it in a solvent at a dose of 30 mg/10 mL/kg. The solvent composition was 10% dimethylsulfoxide (Wako Pure Chemical Industries, Ltd.), 10% Cremophor EL (Sigma-Aldrich Japan LLC), 20% hydroxypropyl-β-cyclodextrin (Nihon Shokuhin Kako Co., Ltd.), glycine (Wako Pure Chemical Industries, Ltd.); and the pH was adjusted to 10. Immediately before administration of each sample, Pre-blood collection was performed, and blood collection was carried out at 2, 6, 10, and 24 hours after administration to measure the serum Ca concentration. Each blood collection was carried out from the jugular vein under isoflurane inhalation anesthesia.
Serum Ca measurement: Serum obtained by centrifugation from the collected blood was measured by using an automatic analyzer TBA-120FR (Toshiba Medical Systems Corporation).
For statistical analysis of the animal studies, data are shown as mean±standard error (SE). Statistical analysis were performed by unpaired test of the SAS Preclinical Package (Ver. 5.00.010720, SAS Institute Japan, Tokyo, Japan).

Data set [2] is described as follows: Metabolic stability using rat hepatocyte. It counts as in vitro ADME. Particulars: for hepatocyte CLint at 1 μM: rat (SD, female) hepatocytes 1×10^6 cells/mL, compound 1 μM, 37° C., read-out: Clearance; for rat hepatocyte metabolic stability compared to Comparative Examples 1, 2, 3, 5, and 6: rat hepatocytes. The protocol: Examination of Metabolic Stability Using Rat Hepatocyte
Liver cells were prepared from the liver of rats (SD, female) by a collagenase perfusion method. A compound of the Examples or a Comparative Example was added, and this was incubated at 37° C. for a specified amount of time, followed by addition of a reaction-stopping solution. The concentration of the parent compound at each reaction time was measured using LC/MS/MS, and inherent clearance (μL/10^6 cells/min) was calculated from the slope of the reaction time versus residual rate.
Cell concentration: 1×10^6 cells/mL
as §1
Medium: Williams' medium E
Reaction-stopping solution: acetonitrile/2-propanol (4/6, v/v)

The next data set concerns the target human PTH1R (Homo sapiens (Human), UniProt Q03431). The experiment in a line: In vitro cAMP signal activity via the human PTH1R (HKRK-B7 cells). The following applies: 100 nM human PTH(1-34) = 100%; for EC20: concentration giving 20% cAMP signaling activity; for pEC50: concentration giving 50% cAMP signaling activity. It counts as cell-based. The procedure: Measurement of In Vitro cAMP Signal Activity of Compounds Via the Human PTH1R
Human PTH(1-34) and calcitonin were purchased from Peptide Institute, Inc. (Osaka, Japan), dissolved in 10 mM acetic acid to 1 mM and stored in a −80° C. freezer.
Cells were cultured in Dulbecco's modified Eagle's medium (DMEM) supplemented with 10% fetal bovine serum (Hyclone), 100 units/ml penicillin G and 100 μg/ml streptomycin sulfate (Invitrogen Corp) at 37° C. in a humidified atmosphere containing 5% CO2.
cAMP signal transduction analysis utilized LLC-PK1 cells not expressing the PTH1R, and HKRK-B7 cells, that is, LLC-PK1 cells overexpressing the human PTH1R at 9.5×10^5 receptors/cell (Takasu et al., J. Bone. Miner. Res. 14:11-20, 1999).
HKRK-B7 or LLC-PK1 cells were seeded into a 96-well plate at 1×10^5 cells/well and incubated overnight. On the following day, 50 μl of cAMP assay buffer (DMEM, 2 mM IBMX, 0.2 mg/ml bovine serum albumin, 35 mM Hepes-NaOH, pH 7.4) containing human PTH(1-34) or each compound was added and the plate was placed in a 37° C. incubator. The cells were incubated for 20 minutes. After removing the medium, the cells were washed with 100 μl of cAMP assay buffer once. The plate was placed on dry ice powder to freeze the cells and then removed from the dry ice. The cells were lysed with 40 μl of 50 mM HCl and frozen again on dry ice. The amount of intracellular cAMP produced was measured using a commercially available cAMP EIA kit (Biotrack cAMP EIA system, GE health care).
Analyses were performed using a variable gradient S-shaped dose-response curve equation.

pEC50: −log10 of the molar value. Where only a bound is given, the exact number is not on record here.

Sequence of human PTH1R (Q03431 27-593): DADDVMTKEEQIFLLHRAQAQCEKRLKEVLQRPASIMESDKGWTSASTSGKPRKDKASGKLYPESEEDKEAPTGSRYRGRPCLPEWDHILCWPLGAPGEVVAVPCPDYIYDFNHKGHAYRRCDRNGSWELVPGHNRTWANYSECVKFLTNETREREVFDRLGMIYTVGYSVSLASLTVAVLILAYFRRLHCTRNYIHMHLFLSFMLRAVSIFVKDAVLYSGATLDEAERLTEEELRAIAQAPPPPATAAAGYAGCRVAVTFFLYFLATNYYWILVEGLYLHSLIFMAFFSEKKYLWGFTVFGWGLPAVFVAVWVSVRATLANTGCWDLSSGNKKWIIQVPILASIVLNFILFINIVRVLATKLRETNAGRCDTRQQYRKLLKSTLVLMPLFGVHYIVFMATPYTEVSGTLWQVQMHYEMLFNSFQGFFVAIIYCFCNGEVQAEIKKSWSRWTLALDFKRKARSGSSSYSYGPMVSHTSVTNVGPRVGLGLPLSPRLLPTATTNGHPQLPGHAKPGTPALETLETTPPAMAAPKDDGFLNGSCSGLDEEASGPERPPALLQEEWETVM

As for `Cc1cc(N2C(=O)CNC2=O)cc(C)c1CCS(=O)(=O)N1CCC2(CC1)N=C(c1cccc(OC(F)(F)F)c1)NC2=O` [Comparative Example 2, reference compound], the microsomal CLint at 1 μM in data set [1] was 61 µL/min/mg. The “achievement of therapeutic target range of serum Ca concentration of 7.6 to 8.8 mg/dL” value in the data set on TPTX rat model is recorded as “could not be achieved”. In the data set with TPTX rat model (up to 24 hours after administration), the “change of serum Ca concentration from the Pre-value” is listed as “smaller positive changes from the Pre-value”. For the same molecule, the hepatocyte CLint at 1 μM in data set [2] came out at 5.9 µL/min/1e6 cells. Moreover, on human PTH1R, the EC20 turned out to be 3.1 µM and the pEC50 was 4.89.

Turning to `Cc1cc(N2C(=O)CNC2=O)cc(C)c1CCS(=O)(=O)N1CCC2(CC1)N=C(c1ccc(F)c(C(F)(F)F)c1)NC2=O` [Comparative Example 3, reference compound], in data set [1], the microsomal CLint at 1 μM was determined as 74 µL/min/mg. Besides, the hepatocyte CLint at 1 μM in data set [2] is 22 µL/min/1e6 cells. At human PTH1R, the EC20 worked out at 2.0 µM and the pEC50 is 5.05.

With `CCC1CCC(C2=NC3(CCN(S(=O)(=O)CCc4ccc(N5CC(=O)NC5=O)cc4C)CC3)C(=O)N2)CC1` (centres unmarked) [Comparative Example 4, reference compound], the microsomal CLint at 1 μM in data set [1] amounted to 74 µL/min/mg. In addition, the EC20 on human PTH1R is greater than 505 µM.

On human PTH1R, `CC[C@H]1CC[C@H](C2=NC3(CCN(S(=O)(=O)CCc4ccc(N5CC(=O)NC5=O)cc4C)CC3)C(=O)N2)CC1` [Comparative Example 4, reference compound] had a pEC50 of less than 3.00.

For the molecule `CCC1CCC(C2=NC3(CCN(S(=O)(=O)CCc4ccc(N5C(=O)NC(=O)C5C)cc4C)CC3)C(=O)N2)CC1` (centres unmarked) [Comparative Example 5, reference compound], the microsomal CLint at 1 μM in data set [1] was determined as 112 µL/min/mg. Besides, in data set [2], the hepatocyte CLint at 1 μM stood at 22 µL/min/1e6 cells. On human PTH1R, this molecule came in with an EC20 of 3.1 µM.

Consider `CC[C@H]1CC[C@H](C2=NC3(CCN(S(=O)(=O)CCc4ccc(N5C(=O)NC(=O)C5C)cc4C)CC3)C(=O)N2)CC1` (some centres unmarked) [Comparative Example 5, reference compound], for which the pEC50 on human PTH1R is 4.60.

`CCC1CCC(C2=NC3(CCN(S(=O)(=O)CCc4ccc(N5C(=O)NC(=O)C5(C)C)cc4C)CC3)C(=O)N2)CC1` (centres unmarked) [Comparative Example 6, reference compound]: the microsomal CLint at 1 μM in data set [1] was 154 µL/min/mg. In data set [2], the hepatocyte CLint at 1 μM worked out at 22 µL/min/1e6 cells. Moreover, the EC20 on human PTH1R worked out at 3.6 µM.

At human PTH1R, `CC[C@H]1CC[C@H](C2=NC3(CCN(S(=O)(=O)CCc4ccc(N5C(=O)NC(=O)C5(C)C)cc4C)CC3)C(=O)N2)CC1` [Comparative Example 6, reference compound] showed a pEC50 of 4.49.

Regarding `Cc1cc(N2C(=O)NC(=O)C2(C)C)cc(C)c1CCS(=O)(=O)N1CCC2(CC1)N=C(c1cccc(Br)c1)NC2=O` [Compound 2, 1-(4-(2-((2-(3-bromophenyl)-4-oxo-1,3,8-triazaspiro[4.5]deca-1-en-8-yl)sulfonyl)ethyl)-3,5-dimethylphenyl)-5,5-dimethylimidazolidine-2,4-dione], the microsomal CLint at 1 μM in data set [1] turned out to be 38 µL/min/mg. Further, in data set [2], the hepatocyte CLint at 1 μM is 3 µL/min/1e6 cells; the “rat hepatocyte metabolic stability compared to Comparative Examples 1, 2, 3, 5, and 6” value is listed as “increased”. Besides, on human PTH1R, the EC20 stood at 2.4 µM and the pEC50 was 4.85.

For the molecule `Cc1cc(N2C(=O)NC(=O)C2(C)C)cc(C)c1CCS(=O)(=O)N1CCC2(CC1)N=C(c1ccc(F)c(C(F)(F)F)c1)NC2=O` [Compound 3, 1-(4-(2-((2-(4-fluoro-3-(trifluoromethyl)phenyl)-4-oxo-1,3,8-triazaspiro[4.5]deca-1-en-8-yl)sulfonyl)ethyl)-3,5-dimethylphenyl)-5,5-dimethylimidazolidine-2,4-dione], the microsomal CLint at 1 μM in data set [1] is 29 µL/min/mg. In addition, the hepatocyte CLint at 1 μM in data set [2] came to 17 µL/min/1e6 cells.

In the case of `Cc1cc(N2C(=O)NC(=O)C2(C)C)cc(C)c1CCS(=O)(=O)N1CCC2(CC1)N=C(c1ccc(OC(F)(F)F)c(F)c1)NC2=O` [Compound 4, 1-(4-(2-((2-(3-fluoro-4-(trifluoromethoxy)phenyl)-4-oxo-1,3,8-triazaspiro[4.5]deca-1-en-8-yl)sulfonyl)ethyl)-3,5-dimethylphenyl)-5,5-dimethylimidazolidine-2,4-dione], the microsomal CLint at 1 μM in data set [1] is 27 µL/min/mg. Further, in data set [2], the hepatocyte CLint at 1 μM amounted to 2.2 µL/min/1e6 cells; the “rat hepatocyte metabolic stability compared to Comparative Examples 1, 2, 3, 5, and 6” value was “increased”. On human PTH1R, this molecule gave an EC20 of 1.6 µM and a pEC50 of 5.13.

As to `Cc1cc(N2C(=O)NC(=O)C2(C)C)cc(C)c1CCS(=O)(=O)N1CCC2(CC1)N=C(c1ccc3c(c1)OC(F)(F)O3)NC2=O` [Compound 5, 1-(4-(2-((2-(2,2-difluorobenzo[d][1,3]dioxol-5-yl)-4-oxo-1,3,8-triazaspiro[4.5]deca-1-en-8-yl)sulfonyl)ethyl)-3,5-dimethylphenyl)-5,5-dimethylimidazolidine-2,4-dione], the microsomal CLint at 1 μM in data set [1] is 37 µL/min/mg. Also, in data set [2], the hepatocyte CLint at 1 μM was determined as 1 µL/min/1e6 cells; the “rat hepatocyte metabolic stability compared to Comparative Examples 1, 2, 3, 5, and 6” value is “increased”. On human PTH1R, this molecule gave an EC20 of 1.7 µM and a pEC50 of 5.09.

As for `Cc1cc(N2C(=O)NC(=O)C23CCN(C)CC3)cc(C)c1CCS(=O)(=O)N1CCC2(CC1)N=C(c1ccc(OC(F)(F)F)cc1)NC2=O` [Compound 9, 1-(3,5-dimethyl-4-(2-((4-oxo-2-(4-(trifluoromethoxy)phenyl)-1,3,8-triazaspiro[4.5]deca-1-en-8-yl)sulfonyl)ethyl)phenyl)-8-methyl-1,3,8-triazaspiro[4.5]decane-2,4-dione], the microsomal CLint at 1 μM in data set [1] stood at 28 µL/min/mg. Further, in data set [2], the hepatocyte CLint at 1 μM amounted to 1.8 µL/min/1e6 cells; the “rat hepatocyte metabolic stability compared to Comparative Examples 1, 2, 3, 5, and 6” value is “increased”. At human PTH1R, this molecule showed an EC20 of 2.6 µM and a pEC50 of 4.92.

`Cc1cc(N2C(=O)NC(=O)C23CCCC3)cc(C)c1CCS(=O)(=O)N1CCC2(CC1)N=C(c1cccc(C(F)(F)F)c1)NC2=O` [Compound 12, 1-(3,5-dimethyl-4-(2-((4-oxo-2-(3-(trifluoromethyl)phenyl)-1,3,8-triazaspiro[4.5]deca-1-en-8-yl)sulfonyl)ethyl)phenyl)-1,3-diazaspiro[4.4]nonane-2,4-dione]: in data set [1], the microsomal CLint at 1 μM turned out to be 63 µL/min/mg.

What is called EC20 is the concentration needed for an effect of 20%. A high value points to a need for much substance. The term pEC50 denotes the negative decadic logarithm of the EC50, by convention in mol/L. High values mean a low EC50, low ones a high EC50.
